The results in this text go back to patent US10537552B2, “Substituted 5-hydroxyoxindoles and their use as analgesics and fever reducers” (CARAFE DRUG INNOVATION, LLC, priority 2015, dated 2020).

By inhibition is commonly meant the change of the read-out against control, counted positive when it falls.

Where “and” joins values, the source holds several entries; their conditions need not be identical. Equal entries are not always repeated.

In one data set the target is T1, COX1 (h) (Homo sapiens, UniProt P23219).
T1 construct: host or cells: Sf9 cells
T1 sequence (P23219 24-599): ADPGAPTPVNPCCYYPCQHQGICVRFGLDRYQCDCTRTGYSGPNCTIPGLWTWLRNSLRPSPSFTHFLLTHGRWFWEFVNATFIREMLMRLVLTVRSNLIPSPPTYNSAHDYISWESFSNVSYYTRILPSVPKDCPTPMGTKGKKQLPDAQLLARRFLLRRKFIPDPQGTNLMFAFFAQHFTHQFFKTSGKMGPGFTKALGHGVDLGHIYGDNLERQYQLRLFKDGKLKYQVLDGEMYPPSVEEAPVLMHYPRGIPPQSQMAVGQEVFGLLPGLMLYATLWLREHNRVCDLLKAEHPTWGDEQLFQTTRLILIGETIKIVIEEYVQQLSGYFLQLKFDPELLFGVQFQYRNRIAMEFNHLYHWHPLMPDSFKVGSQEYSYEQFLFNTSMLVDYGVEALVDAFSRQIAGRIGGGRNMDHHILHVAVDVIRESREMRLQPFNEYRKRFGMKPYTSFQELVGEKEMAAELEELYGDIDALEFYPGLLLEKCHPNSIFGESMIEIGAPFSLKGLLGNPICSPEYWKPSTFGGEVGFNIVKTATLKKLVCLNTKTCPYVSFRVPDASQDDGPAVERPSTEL
Kind of data set: COX1 enzyme assay. The data set is classed as biochemical. As for the experimental part: The assay was performed according to the procedure described in Glaser, European Journal of Pharmacology, 281:107-111, 1995, which is incorporated by reference. Recombinant enzymes were reconstituted in buffer. The enzyme preparations were preincubated with DMSO vehicle or compounds in DMSO for 5 min at 37° C. and the human recombinant enzyme expressed in Sf9 cells.
An inhibition greater than about 50% represented significant effects of the test compound. An inhibition of about 25% to about 50% was indicative of weak to moderate effects. An inhibition less than about 25% are not considered significant and may be primarily attributable to variability of the signal around the control level.

A short description of data set [1]: solubility observed when preparing dosing vehicle. The data set is classed as physicochemical. As for the experimental part:
Acetaminophen was acquired from Sigma-Aldrich Corp. (St. Louis, Mo., USA); 5-hydroxy-7-methyloxindole was provided by CaRafe Drug Innovation, LLC (Norristown, Pa., USA) in the form of a powder. […] […] This procedure provided a crude suspension, but it precipitated after some time, therefore vortexing was repeated prior to each injection. Acetaminophen was prepared in the same vehicle (6% Tween® 20 reagent) using light magnetic stirring.

In data set [2] the test system is liver (acute liver toxicity). Briefly: plasma aminotransferase activity (ALT, AST) after intragastric dosing. It counts as in vivo, C57BL/6 mice. As to conditions: for AST / ALT: individual mice 1-8; for ALT, Mean / AST, Mean: mean of 8 mice; for hepatotoxicity, overall assessment (ALT, AST, pathohistology): mice, intragastric, summary statement. On the procedure:
This example was performed to determine if acute liver toxicity results from oral administration of 5-hydroxy-7-methyloxindole (CaRafe Drug Innovation, LLC) compared to the known acute liver toxicity produced by acetaminophen.
Acetaminophen was acquired from Sigma-Aldrich Corp. (St. Louis, Mo., USA); 5-hydroxy-7-methyloxindole was provided by CaRafe Drug Innovation, LLC (Norristown, Pa., USA) in the form of a powder. […] Based on the efficacy testing performed at Drexel University, 5-hydroxy-7-methyloxindole was suspended in 6% Tween® 20 reagent with vortexing. This procedure provided a crude suspension, but it precipitated after some time, therefore vortexing was repeated prior to each injection. Acetaminophen was prepared in the same vehicle (6% Tween® 20 reagent) using light magnetic stirring.
Ten-week old male C57BL/6 mice were used in all of the experiments. All protocols were approved before study initiation by the Ethics Committee of University of Zagreb School of Medicine (Zagreb, Croatia) and the study was conducted in accordance with accepted standards of humane animal care.
(§1) In all experiments, mice were fasted overnight and then allocated randomly to receive either acetaminophen or equimolar dose of 5-hydroxy-7-methyloxindole by the intragastric route. Food was returned 4 h after the treatment. The two experimental groups were:
(§2) (a) Lower-dose group: Mice were administered acetaminophen (300 mg/kg) or 5-hydroxy-7-methyloxindole (324 mg/kg). After 7 h, the mice were sacrificed and liver and blood samples were taken for the analysis.
(§3) Seven hours after receiving the second injection, mice were sacrificed and liver and blood samples were taken for analysis.
After collection, the blood samples were centrifuged, and plasma was separated and stored at −80° C. for 24 h. Activities of ALT (alanine transaminase) and of AST (aspartate transaminase) in plasma were determined using standard laboratory techniques in a clinical diagnostic laboratory.

In data set [3] the test system is liver (acute liver toxicity). Briefly: liver histology (pathohistological examination). It counts as in vivo, C57BL/6 mice. As for the experimental part:
as §1, §2, §3
A portion of the liver lobes of each mouse was fixed in 4% buffered paraformaldehyde, dehydrated in increasing concentrations of ethanol, and embedded in paraffin. Then, sections of tissue were cut to […] thickness using a rotary microtome, stained with hematoxylin and eosin, and then analyzed under a microscope.

[4] abbreviates: higher-dose protocol: two cumulative injections 2.5 h apart, 7 h after second injection.
Setting [5] is: lower-dose protocol: acetaminophen 300 mg/kg or 5-hydroxy-7-methyloxindole 324 mg/kg, 7 h.
The mark [6] stands for this setting: 5-hydroxy-7-methyloxindole 324 mg/kg intragastric, 7 h.

As to `Cc1cc(O)cc2c1NC(=O)C2` [5-hydroxy-7-methyloxindole, 5-Hydroxy-7-methyloxindole], the “binding to COX1 receptor, in words” value at COX1 (h) is “binds minimally, if at all”. Further, the inhibition at 10 µM on COX1 (h) (test concentration 1 × 10^−5 M, human recombinant enzyme expressed in Sf9 cells) was -29%. In addition, in data set [1] (general statement), the solubility result is “low solubility”. In addition, in data set [1] (saline, for dosing), the solubility in saline result was “not sufficiently soluble”. The “ALT and AST levels, in words” value in data set [2] (setting [4]) was “normal or only minimally elevated levels of ALT and AST”. Also, the AST in data set [2] (5-hydroxy-7-methyloxindole 324 mg/kg intragastric, 7 h after treatment) is 80 U/L (2×) and 60 U/L (2×) and 120 U/L and 330 U/L and 170 U/L and 90 U/L; in data set [2] (5-hydroxy-7-methyloxindole 540 mg/kg total (two 270 mg/kg) intragastric, 7 h after second injection), 60 (2×) and 120 (3×) and 100 and 70 and 110. Also, the ALT in data set [2] (5-hydroxy-7-methyloxindole 324 mg/kg intragastric, 7 h after treatment, 6% Tween 20) was 30 U/L (5×) and 20 U/L and 50 U/L (2×); in data set [2] (5-hydroxy-7-methyloxindole 540 mg/kg total (two 270 mg/kg, 2.5 h apart) intragastric, 7 h after second injection) it was 20 (3×) and 30 (3×) and 50 (2×). The “ALT and AST levels / liver damage, in words” value in data set [2] (setting [5]) is “normal or only minimally elevated”. Further, the “ALT, Mean” value in data set [2] (setting [6]) is reported as 34 U/L; in data set [2] (5-hydroxy-7-methyloxindole 540 mg/kg total, 7 h after second injection, in U/L), 31.25. Further, the “AST, Mean” value worked out at 124 U/L in data set [2] (setting [6]) and 95 U/L in data set [2] (5-hydroxy-7-methyloxindole 540 mg/kg total, 7 h after second injection). For the same compound, the “hepatotoxicity, overall assessment (ALT, AST, pathohistology)” value in data set [2] (6% Tween 20) is given as “devoid of hepatotoxic effect”; in data set [2] (6% Tween 20, listed as 5-Hydroxy-7-methyloxindole) it was “significantly less hepatotoxicity than acetaminophen”. The “liver injury on pathohistological examination” value in data set [3] (setting [4]) was “without visible liver injury”; in data set [3] (setting [5]) it was “no visible sign of liver injury”.
